Results: patent EP1862454A1, “Novel compounds, isomer thereof or pharmaceutically acceptable salts thereof as vanilloid receptor antagonist; and a pharmaceutical composition containing the same” (Amorepacific Corporation, priority 2006, dated 2007)

Assays:
Male ICR mice = experiment: Analgesic activity test: mouse writhing test induced with phenyl-p-quinone; type: in vivo; settings: writhes counted vs control group
Procedure: 2. Analgesic activity test: Mouse writhing test by inducing with phenyl-p-quinone
Male ICR mice (mean body weight 25g) were maintained in a controlled lighting environment (12 h on/ 12 h off) for experiment. Animals received an intraperitoneal injection of 0.3ml of the chemical irritant phenyl-p-quinone (dissolved in saline containing 5% ethanol to be a dose of 4.5mg/kg) and 6 mins later, the number of abdominal constrictions was counted in the subsequent 6 mins period. Animals (10 animals/group) received 0.2ml of test compounds solution in vehicle of ethanol/Tween 80/saline (10/10/80) intraperitoneally 30 min before the injection of phenyl-p-quinone. A reduction in the number of writhes responding to the test drug compound relative to the number responding in saline control group was considered to be indicative of an analgesic effect. Analgesic effect was calculated by % inhibition equation (% inhibition=(C-T)/C x 100), wherein C and T represent the number of writhes in control and compound-treated group, respectively (Table 2).

vanilloid receptor = target: T1, vanilloid receptor (Rattus norvegicus, UniProt O35433); experiment: 45Ca influx test in primary culture of neonatal rat DRG neurons, inhibition of the capsaicin response; type: cell-based, SD rats; settings: DRG nerve cells; capsaicin 0.5 µM; 45Ca 10 µCi/ml; 10 mins at room temperature; read-out: Antagonist Calcium Uptake Test (IC50)
T1 construct: DRG nerve cells from the primary culture of 2 days were equilibrated; endogenous in cells; host or cells: primary culture of dorsal root ganglion neurons from neonatal SD rats
Procedure: 1) Separation of spinal dorsal root ganglia (DRG) in newborn rats and primary culture thereof
Neonatal (2-3 day old or younger than 2-3 day old) SD rats were put in ice for 5 minutes to anesthetize and disinfected with 70% ethanol. DRG of all part of spinal cord were dissected (Wood et al., 1988, J. Neurosci. 8, pp3208-3220) and collected in DME/F12 medium to which 1.2g/l sodium bicarbonate and 50mg/l gentamycin were added. The DRG were incubated sequentially at 37°C for 30 min in 200 U/ml collagenase and 2.5mg/ml trypsin, separately. The ganglia were washed twice with DME/F12 medium supplemented with 10% horse serum, triturated through a fire-polished Pasteur pipette, filtered through Nitex 80 membrane to obtain single cell suspension and the suspension was washed once more. This was subjected to centrifugation, then resuspended in cell culture medium at certain level of cell density. As the cell culture medium, DME/F12 medium supplemented with 10% horse serum was diluted with identical medium conditioned by C6 glioma cells 2 days on a confluent monolayer (1:1), and NGF (Nerve Growth Factor) was added to adjust 200ng/ml as final concentration. After the cells were grown for 2 days in medium where cytosine arabinoside (Ara-C, 100 µM) was added to kill dividing nonneuronal cells, medium was changed to one without Ara-C. The resuspended cells were plated at a density of 1500-2000 neurons/well onto Terasaki plates previously coated with 10 µg/ml poly-D-ornithine.
2) ^45 Ca influx experiments
DRG nerve cells from the primary culture of 2 days were equilibrated by washing 4 times with HEPES (10mM, pH 7.4)-buffered Ca ^2+, Mg^2+-free HBSS (H-HBSS). The solution in each well was removed from the individual well. Medium containing the test compound plus capsaicin (final concentration 0.5 µM) and ^45Ca (final concentration 10 µCi/ml) in H-HBSS was added to each well and incubated at room temperature for 10 mins. Terasaki plates were washed five times with H-HBSS and dried at room temperature. To each well, 0.3% SDS (10 µl) was added to elute ^45Ca. After the addition of scintillation cocktail into each well, the amount of ^45Ca influx into neuron was measured by counting radioactivity. Antagonistic activities of test compounds against vanilloid receptor were calculated as percent of the inhibition of maximal response of capsaicin at a concentration of 0.5 µM. […]

T1 sequence (O35433 whole entry): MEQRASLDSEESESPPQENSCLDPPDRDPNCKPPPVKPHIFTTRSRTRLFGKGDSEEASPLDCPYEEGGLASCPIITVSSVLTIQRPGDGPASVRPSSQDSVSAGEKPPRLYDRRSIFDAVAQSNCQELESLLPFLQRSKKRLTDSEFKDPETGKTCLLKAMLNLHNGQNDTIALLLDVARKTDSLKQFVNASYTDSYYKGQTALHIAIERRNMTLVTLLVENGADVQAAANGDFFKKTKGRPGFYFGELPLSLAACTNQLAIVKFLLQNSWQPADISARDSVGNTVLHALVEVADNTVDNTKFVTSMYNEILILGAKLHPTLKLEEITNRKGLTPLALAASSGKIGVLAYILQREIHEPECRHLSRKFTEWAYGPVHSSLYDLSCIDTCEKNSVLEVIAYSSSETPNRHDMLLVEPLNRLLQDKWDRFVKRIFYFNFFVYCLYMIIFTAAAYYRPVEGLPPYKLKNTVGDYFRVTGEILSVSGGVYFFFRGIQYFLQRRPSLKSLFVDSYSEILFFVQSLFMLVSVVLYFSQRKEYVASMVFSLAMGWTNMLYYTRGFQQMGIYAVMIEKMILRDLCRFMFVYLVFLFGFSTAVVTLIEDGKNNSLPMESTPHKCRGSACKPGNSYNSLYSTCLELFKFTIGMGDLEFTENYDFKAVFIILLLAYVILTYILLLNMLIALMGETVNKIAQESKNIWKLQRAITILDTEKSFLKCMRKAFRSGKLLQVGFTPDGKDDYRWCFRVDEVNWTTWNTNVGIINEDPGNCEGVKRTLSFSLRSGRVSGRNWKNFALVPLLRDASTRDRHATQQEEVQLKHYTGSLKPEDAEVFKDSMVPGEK

IC50 (vanilloid receptor) [nM]	Compound	Analgesic effect (%Inhibition) (Male ICR mice; Dose 0.3 mg/kg intraperitoneally 30 min before phenyl-p-quinone (4.5mg/kg)) [%]	Analgesic effect (%Inhibition) (Male ICR mice; Dose 1 mg/kg intraperitoneally 30 min before phenyl-p-quinone (4.5mg/kg)) [%]
54	C=Cc1cc(CNC(=S)NCc2ccc(C(C)(C)C)cc2)ccc1NS(C)(=O)=O [Example 1, N-{4-[3-(4-t-butylbenzyl)thioureido-methyl]-2-vinyl-phenyl} methanesulfonamide]	93	–
330	C=Cc1cc(CNC(=S)NCc2ccc(C(C)(C)C)cc2)cc(C(F)(F)F)c1NS(C)(=O)=O [Example 2, N-{4-[3-(4-t-butylbenzyl)thioureido-methyl]-2-trifluoromethyl-6-vinyl-phenyl}methanesulfonamide]	–	–
35	C=Cc1cc(CNC(=S)NCc2ccc(C(C)(C)C)cc2)cc(F)c1NS(C)(=O)=O [Example 3, N-{4-[3-(4-t-butylbenzyl)thioureido-methyl]-2-fluoro-6-vinyl-phenyl}methanesulfonamide]	–	57
93	C=Cc1cc(CNC(=S)NCc2ccc(C(C)(C)C)cc2)cc(Cl)c1NS(C)(=O)=O [Example 4, N-{4-[3-(4-t-butylbenzyl)thioureido-methyl]-2-chloro-6-vinyl-phenyl}methanesulfonamide]	–	–
190	C=Cc1cc(CNC(=S)NCc2ccc(C(C)(C)C)cc2)cc(C)c1NS(C)(=O)=O [Example 5, N-{4-[3-(4-t-butylbenzyl)thioureido-methyl]-2-methyl-6-vinyl-phenyl}methanesulfonamide]	–	–
120	C=Cc1cc(C(C)NC(=S)NCc2ccc(C(C)(C)C)cc2)cc(F)c1NS(C)(=O)=O (centres unmarked) [Example 6, N-(4-{1-[3-(4-t-butylbenzyl)thioureido]ethyl}-2-fluoro-6-vinyl-phenyl) methanesulfonamide]	–	–
